Assay results as given in ChEMBL document CHEMBL4602667, “An NMR-Based Chemometric Strategy to Identify Leishmania donovani Nucleoside Hydrolase Inhibitors from the Brazilian Tree Ormosia arborea” (J Nat Prod, 2020).
The source made the active and inactive calls. No cut-off for these calls is given here.

Columns and labels:
[1] = Inhibition of recombinant Leishmania donovani C-terminal His6-tagged Nucleoside hydrolase expressed in Escherichia coli BL21(DE3) cells assessed as reduction in uric acid formation by coupled assay
[2] = system: Leishmania donovani; test: Reversible inhibition of recombinant Leishmania donovani C-terminal His6-tagged Nucleoside hydrolase expressed in Escherichia coli BL21(DE3) cells assessed recovery of enzyme activity at 10 times of IC50 preincubated for 20 mins followed by inosine addition by jump dilution experiment based assay
[3] = Noncompetitive inhibition of recombinant Leishmania donovani C-terminal His6-tagged Nucleoside hydrolase expressed in Escherichia coli BL21(DE3) cells assessed as decrease in Vmax using 0.01 to 3 mM of inosine as substrate preincubated for 20 mins followed by inosine addition

SMILES | IC50 [1] [µM] | inhibition [2] | Ki [3] [µM]
O=C(/C=C/c1ccc(O)cc1)O[C@@H]1Cc2c(O)cc3c(c2O[C@@H]1c1ccc(O)c(O)c1)[C@H]1c2c(O)cc(O)cc2O[C@@](c2ccc(O)c(O)c2)(O3)[C@@H]1O | 25.6 | Active | 21.2
O=C(/C=C/c1ccc(O)cc1)O[C@@H]1Cc2c(O)cc3c(c2O[C@@H]1c1ccc(O)c(O)c1)[C@H]1c2c(O)cc(O)cc2O[C@@](c2cc(O)c(O)c(O)c2)(O3)[C@@H]1O | 28.2 | Active | 27.9
